Structures can show the parent of a compound that is named as a salt.
Assays:
[1] = test system: NCI-H292 lung cancer cells; assay: FDA drug screening, complete media vs cholesterol-free media without statin (TABLE 1); format: cell-based, human
[2] = test system: NCI-H292 lung cancer cells; assay: FDA drug screening, complete media vs cholesterol-free media with simvastatin (TABLE 2); format: cell-based, human; settings: for Cholesterol-free media + simvastatin (0.04 μM) / Complete Media: NCI-H292 cells
[3] = NCI-H292 cells, cholesterol-free media without statin
[4] = complete vs cholesterol-free media, greater than 0 enhanced anti-cancer activity, about 0 neutral, below 0 antagonists
[5] = FDA drug library screen, cholesterol-free media with simvastatin 0.04 μM
[6] = FDA drug library screen, complete media
[7] = complete media vs cholesterol-free media + simvastatin (0.04 μM), >0 enhanced anti-cancer activity, about 0 neutral, <0 antagonist
[8] = Complete minus Cholesterol-free, […]
[9] = NCI-H292 cells, cholesterol-free media without statin, FDA drug library screen
[10] = NCI-H292 cells, complete media, FDA drug library screen
[11] = cholesterol-free media with simvastatin 0.04 μM, FDA drug library screen (TABLE 2)
[12] = complete media, FDA drug library screen (TABLE 2)
[13] = complete media minus cholesterol-free media + simvastatin (0.04 μM), […]
[14] = Complete minus Cholesterol-free, greater than 0 enhanced anti-cancer activity, about 0 neutral, below 0 antagonists
[15] = NCI-H292 cells in cholesterol-free media without statin
[16] = NCI-H292 cells in complete media
[17] = complete media minus cholesterol-free media + simvastatin (0.04 μM), >0 enhanced anti-cancer activity, about 0 neutral, <0 antagonist
[18] = Complete minus Cholesterol-free, >0 enhanced anti-cancer activity, about 0 neutral, <0 antagonist
[19] = FDA library drug in cholesterol-free media with simvastatin 0.04 μM
[20] = FDA library drug in complete media
[21] = complete vs cholesterol-free media, […]
[22] = cholesterol-free media with simvastatin 0.04 μM, cell growth value in FDA drug screen
[23] = complete media, cell growth value in FDA drug screen
[24] = complete media minus cholesterol-free media + simvastatin, >0 enhanced anti-cancer activity, about 0 neutral, <0 antagonist
[25] = complete vs cholesterol-free media, >0 enhanced anti-cancer activity, about 0 neutral, <0 antagonist
[26] = Complete minus Cholesterol-free, greater than 0 enhanced anti-cancer activity, about 0 neutral, below 0 antagonist
[27] = NCI-H292 cells, FDA drug library screen, cholesterol-free media without statin
[28] = NCI-H292 cells, FDA drug library screen, complete media
[29] = drug in cholesterol-free media with simvastatin 0.04 μM
[30] = complete media vs cholesterol-free media + simvastatin (0.04 μM), […]

## Cc1noc(NS(=O)(=O)c2ccc(N)cc2)c1C [Sulfisoxazole]
[1]; [3]
  Cholesterol-free: 1.273
[1]; NCI-H292 cells, complete media
  Complete: 0.8703
[1]; [4]
  Difference: −0.40
[2]; [5]
  Cholesterol-free media + simvastatin (0.04 μM): 1.12
[2]; [6]
  Complete Media: 1.045
[2]; [7]
  Difference: −0.08

## COc1cc(S(=O)(=O)[O-])ccc1O.[K+] [Sulfogaiacol]
[1]; [8]
  Difference: −0.01
[1]; [9]
  Cholesterol-free: 0.8896
[1]; [10]
  Complete: 0.8811
[2]; [11]
  Cholesterol-free media + simvastatin (0.04 μM): 0.9781
[2]; [12]
  Complete Media: 0.9488
[2]; [13]
  Difference: −0.03

## CC1=C(CC(=O)O)c2cc(F)ccc2/C1=C\c1ccc([S+](C)[O-])cc1 (centres unmarked) [Sulindac]
[1]; [14]
  Difference: −0.48
[1]; [15]
  Cholesterol-free: 1.336
[1]; [16]
  Complete: 0.8519
[2]; [11]
  Cholesterol-free media + simvastatin (0.04 μM): 1.193
[2]; [17]
  Difference: −0.02

## CCN1CCCC1CNC(=O)c1cc(S(N)(=O)=O)ccc1OC (centres unmarked) [Sulpiride]
[1]; [18]
  Difference: −0.22
[1]; [3]
  Cholesterol-free: 1.254
[1]; NCI-H292 cells, complete media
  Complete: 1.03
[2]; [11]
  Cholesterol-free media + simvastatin (0.04 μM): 1.077
[2]; [12]
  Complete Media: 1.053
[2]; [17]
  Difference: −0.02

## CCN(CC)CCNC(=O)c1c(C)[nH]c(/C=C2\C(=O)Nc3ccc(F)cc32)c1C [Sunitinib]
[1]; [18]
  Difference: −0.01
[1]; [9]
  Cholesterol-free: 0.5331
[1]; [10]
  Complete: 0.523
[2]; [19]
  Cholesterol-free media + simvastatin (0.04 μM): 1.48
[2]; [20]
  Complete Media: 1.121
[2]; [7]
  Difference: −0.36

## CCOCC(O)COc1ccc(NC(=O)CC[S+](C)C)cc1.Cc1ccc(S(=O)(=O)[O-])cc1 (centres unmarked) [Suplatast (Tosilate)]
[1]; [9]
  Cholesterol-free: 0.9586
[1]; [10]
  Complete: 1.127
[1]; [21]
  Difference: 0.17
[2]; [5]
  Cholesterol-free media + simvastatin (0.04 μM): 2.447
[2]; [13]
  Difference: −0.95

## CC(C(=O)O)c1ccc(C(=O)c2cccs2)cc1 (centres unmarked) [Suprofen]
[1]; [18]
  Difference: −0.28
[1]; [3]
  Cholesterol-free: 1.108
[1]; NCI-H292 cells, complete media
  Complete: 0.8283
[2]; [22]
  Cholesterol-free media + simvastatin (0.04 μM): 0.9436
[2]; [23]
  Complete Media: 0.9637
[2]; [24]
  Difference: 0.02

## Cc1ccc(C(=O)Nc2ccc(S(=O)(=O)O)c3cc(S(=O)(=O)O)cc(S(=O)(=O)O)c23)cc1NC(=O)c1cccc(NC(=O)Nc2cccc(C(=O)Nc3cc(C(=O)Nc4ccc(S(=O)(=O)O)c5cc(S(=O)(=O)O)cc(S(=O)(=O)O)c45)ccc3C)c2)c1 [Suramin (sodium salt)]
[1]; [14]
  Difference: −0.70
[1]; [15]
  Cholesterol-free: 1.64
[1]; [16]
  Complete: 0.9404
[2]; [19]
  Cholesterol-free media + simvastatin (0.04 μM): 1.303
[2]; [20]
  Complete Media: 0.9716
[2]; [7]
  Difference: −0.33

## Nc1c2c(nc3ccccc13)CCCC2 [Tacrine (hydrochloride)]
[1]; [3]
  Cholesterol-free: 1.218
[1]; NCI-H292 cells, complete media
  Complete: 0.7601
[1]; [4]
  Difference: −0.46
[2]; [5]
  Cholesterol-free media + simvastatin (0.04 μM): 1.139
[2]; [6]
  Complete Media: 1.054
[2]; [7]
  Difference: −0.08

## Nc1c2c(nc3ccccc13)CCCC2 [Tacrine hydrochloride hydrate]
[1]; [9]
  Cholesterol-free: 1.254
[1]; [10]
  Complete: 1.477
[1]; [25]
  Difference: 0.22
[2]; [11]
  Cholesterol-free media + simvastatin (0.04 μM): 1.406
[2]; [12]
  Complete Media: 1.383
[2]; [17]
  Difference: −0.02

## C=CC[C@@H]1/C=C(\C)C[C@H](C)C[C@H](OC)[C@H]2O[C@@](O)(C(=O)C(=O)N3CCCC[C@H]3C(=O)O[C@H](/C(C)=C/[C@@H]3CC[C@@H](O)[C@H](OC)C3)[C@H](C)[C@@H](O)CC1=O)[C@H](C)C[C@@H]2OC [Tacrolimus (monohydrate)]
[1]; [18]
  Difference: −0.26
[1]; [3]
  Cholesterol-free: 1.012
[1]; NCI-H292 cells, complete media
  Complete: 0.7533
[2]; [22]
  Cholesterol-free media + simvastatin (0.04 μM): 1.131
[2]; [23]
  Complete Media: 1.225
[2]; [24]
  Difference: 0.09

## CN1CC(=O)N2[C@H](c3ccc4c(c3)OCO4)c3[nH]c4ccccc4c3C[C@@H]2C1=O [Tadalafil]
[1]; [3]
  Cholesterol-free: 1.298
[1]; NCI-H292 cells, complete media
  Complete: 0.971
[1]; [4]
  Difference: −0.33
[2]; [5]
  Cholesterol-free media + simvastatin (0.04 μM): 1.05
[2]; [6]
  Complete Media: 0.9711
[2]; [7]
  Difference: −0.08

## CNC[C@H](O)[C@@H](O)[C@H](O)[C@H](O)CO.O=C(O)c1ccc2nc(-c3cc(Cl)cc(Cl)c3)oc2c1 [Tafamidis meglumine]
[1]; [18]
  Difference: −0.03
[1]; [9]
  Cholesterol-free: 0.8398
[1]; [10]
  Complete: 0.8088
[2]; [5]
  Cholesterol-free media + simvastatin (0.04 μM): 0.9551
[2]; [24]
  Difference: 0.20

## O=C(O)c1ccc2nc(-c3cc(Cl)cc(Cl)c3)oc2c1 [Tafamidis]
[1]; [9]
  Cholesterol-free: 0.399
[1]; [10]
  Complete: 0.8565
[1]; [25]
  Difference: 0.46
[2]; [19]
  Cholesterol-free media + simvastatin (0.04 μM): 1.307
[2]; [20]
  Complete Media: 0.9388
[2]; [7]
  Difference: −0.37

## CC(C)OC(=O)CCC/C=C\C[C@@H]1[C@@H](/C=C/C(F)(F)COc2ccccc2)[C@H](O)C[C@@H]1O [Tafluprost]
[1]; [26]
  Difference: −0.18
[1]; [27]
  Cholesterol-free: 0.9541
[1]; [28]
  Complete: 0.7736
[2]; [29]
  Cholesterol-free media + simvastatin (0.04 μM): 1.261
[2]; drug in complete media
  Complete Media: 1.095
[2]; [7]
  Difference: −0.17

## C=Cc1c(C)c2cc3nc(c(CC(=O)N[C@@H](CC(=O)O)C(=O)O)c4[nH]c(cc5nc(cc1[nH]2)C(C)=C5CC)c(C)c4C(=O)O)[C@@H](CCC(=O)O)[C@@H]3C [Talaporfin (sodium)]
[1]; [18]
  Difference: −0.29
[1]; [3]
  Cholesterol-free: 1.22
[1]; NCI-H292 cells, complete media
  Complete: 0.9319
[2]; [5]
  Cholesterol-free media + simvastatin (0.04 μM): 1.087
[2]; [6]
  Complete Media: 0.9459
[2]; [7]
  Difference: −0.14

## Cn1ncnc1[C@H]1c2n[nH]c(=O)c3cc(F)cc(c23)N[C@@H]1c1ccc(F)cc1 [Talazoparib tosylate]
[1]; [18]
  Difference: 0.05
[1]; [9]
  Cholesterol-free: 0.1398
[1]; [10]
  Complete: 0.1924
[2]; [19]
  Cholesterol-free media + simvastatin (0.04 μM): 0.5996
[2]; [20]
  Complete Media: 0.312
[2]; [7]
  Difference: −0.29

## Cn1ncnc1[C@H]1c2n[nH]c(=O)c3cc(F)cc(c23)N[C@@H]1c1ccc(F)cc1 [Talazoparib]
[1]; [18]
  Difference: −0.06
[1]; [9]
  Cholesterol-free: 0.2349
[1]; [10]
  Complete: 0.179
[2]; [22]
  Cholesterol-free media + simvastatin (0.04 μM): 0.3041
[2]; [23]
  Complete Media: 0.3489
[2]; [24]
  Difference: 0.04

## C=CCN1CCc2nc(N)sc2CC1 [Talipexole dihydrochloride]
[1]; [26]
  Difference: −0.09
[1]; [27]
  Cholesterol-free: 1.016
[1]; [28]
  Complete: 0.9282
[2]; [29]
  Cholesterol-free media + simvastatin (0.04 μM): 1.333
[2]; drug in complete media
  Complete Media: 1.079
[2]; [7]
  Difference: −0.25

## O=C1OC(OC(=O)c2cccnc2Nc2cccc(C(F)(F)F)c2)c2ccccc21 (centres unmarked) [Talniflumate]
[1]; [9]
  Cholesterol-free: 0.679
[1]; [10]
  Complete: 1.267
[1]; [25]
  Difference: 0.59
[2]; [29]
  Cholesterol-free media + simvastatin (0.04 μM): 1.554
[2]; drug in complete media
  Complete Media: 1.302
[2]; [7]
  Difference: −0.25

## CC(=O)O.CN1C(=O)C[C@@H](C(=O)N[C@@H](Cc2cnc[nH]2)C(=O)N2CCC[C@H]2C(N)=O)NC1=O [Taltirelin (acetate)]
[1]; [8]
  Difference: −0.12
[1]; [27]
  Cholesterol-free: 1.092
[1]; [28]
  Complete: 0.9679
[2]; [5]
  Cholesterol-free media + simvastatin (0.04 μM): 1.154
[2]; [6]
  Complete Media: 1.062
[2]; [30]
  Difference: −0.09

## CN1C(=O)C[C@@H](C(=O)N[C@@H](Cc2c[nH]cn2)C(=O)N2CCC[C@H]2C(N)=O)NC1=O [Taltirelin]
[1]; [3]
  Cholesterol-free: 1.305
[1]; NCI-H292 cells, complete media
  Complete: 0.871
[1]; [21]
  Difference: −0.43
[2]; [29]
  Cholesterol-free media + simvastatin (0.04 μM): 1.39
[2]; [30]
  Difference: −0.24

## CC1(C)CCC(C)(C)c2cc(NC(=O)c3ccc(C(=O)O)cc3)ccc21 [Tamibarotene]
[1]; [8]
  Difference: −0.24
[1]; [3]
  Cholesterol-free: 0.7767
[1]; NCI-H292 cells, complete media
  Complete: 0.5392
[2]; [5]
  Cholesterol-free media + simvastatin (0.04 μM): 0.556
[2]; [6]
  Complete Media: 0.7365
[2]; complete media minus cholesterol-free media + simvastatin, […]
  Difference: 0.18

## CC/C(=C(\c1ccccc1)c1ccc(OCCN(C)C)cc1)c1ccccc1 [Tamoxifen]
[1]; [18]
  Difference: 0.05
[1]; [9]
  Cholesterol-free: 0.6611
[1]; [10]
  Complete: 0.7069
[2]; [5]
  Cholesterol-free media + simvastatin (0.04 μM): 0.7526
[2]; [6]
  Complete Media: 1.084
[2]; [24]
  Difference: 0.33

## CCOc1ccccc1OCCN[C@H](C)Cc1ccc(OC)c(S(N)(=O)=O)c1 [Tamsulosin]
[1]; [26]
  Difference: −0.14
[1]; [27]
  Cholesterol-free: 1.006
[1]; [28]
  Complete: 0.8695
[2]; [29]
  Cholesterol-free media + simvastatin (0.04 μM): 1.361
[2]; drug in complete media
  Complete Media: 1.178
[2]; [7]
  Difference: −0.18

## O=C1[C@@H]2[C@H]3CC[C@H](C3)[C@@H]2C(=O)N1CCCCN1CCN(c2ncccn2)CC1 [Tandospirone]
[1]; [18]
  Difference: −0.26
[1]; [3]
  Cholesterol-free: 1.451
[1]; NCI-H292 cells, complete media
  Complete: 1.192
[2]; [11]
  Cholesterol-free media + simvastatin (0.04 μM): 0.8591
[2]; [12]
  Complete Media: 0.8479
[2]; [17]
  Difference: −0.01
